Laboratory results from patent US8198302B2 (OXiGENE, Inc., priority 2004, dated 2012).

Experiments:
[1] = system: tumor cells; test: Tumor cell cytotoxicity, MTT assay; assay type: cell-based; conditions: tumor cells treated for 24 hours
Experimental: Exponentially growing tumor cells were treated with the following compounds for 24 hours. Insoluble compounds were formulated in a small amount (0.3%) of DMSO for biological evaluation. Cell viability was determined by the calorimetric MTT assay using 3(4,5-dimethylthiazol-2-yl)-2,5-diphenyl-2H-tetrazolium bromide according to well-established procedures (see Berridge, et al. (1996) for a general protocol of this type of assay).

[2] = target: T1, Horseradish peroxidase (HRP) (Armoracia rusticana, UniProt P00433); test: Peroxidase-mediated activation of catechols (HPLC loss of peak area); assay type: biochemical; conditions: for Relative Activation (% Control): relative to non-catechol control = 100; for Slope/Hrp: slope divided by HRP concentration (ug/ml): corrected disappearance
T1 construct: purchased Sigma P6782
T1 sequence (P00433 31-338 limits assumed): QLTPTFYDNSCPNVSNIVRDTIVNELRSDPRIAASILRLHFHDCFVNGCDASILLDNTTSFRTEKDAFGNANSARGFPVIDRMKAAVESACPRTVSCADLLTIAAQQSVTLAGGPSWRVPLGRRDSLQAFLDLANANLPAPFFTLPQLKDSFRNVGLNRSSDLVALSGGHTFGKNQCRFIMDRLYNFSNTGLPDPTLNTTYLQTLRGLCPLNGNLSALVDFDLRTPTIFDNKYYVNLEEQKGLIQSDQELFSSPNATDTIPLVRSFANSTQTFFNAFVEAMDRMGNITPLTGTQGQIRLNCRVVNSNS
Experimental: Methods: catechols were dissolved in DMSO immediately prior to assay (10 mM). HRP (Sigma, P6782, 1000 units/mg), was dissolved in phosphate buffered saline (PBS) at a concentration of 40 ug/ml. Fresh hydrogen peroxide (50 mM) was prepared from a 30% w/w solution (Sigma, H1009). Incubations were carried out in a water bath maintained at 37° C. Exact volumes varied depending on the catechol, but typically they comprised 1.92 ml PBS, 20 μl DMSO, 20 μl hydrogen peroxide and 20 μl drug in a 4 ml amber glass vial. Prior to addition of the drug, the vial was pre-incubated for 10 min. The reaction was initiated by the addition of 20 μl HRP. Samples (100 μl) were then removed at intervals, added to 100 μl acetonitrile and placed on ice. At the end of the incubation, samples were centrifuged (12000 g, 1 min) to remove precipitated protein and the supernatants placed in polypropylene hplc vials for analysis. Control incubations containing no HRP were carried out in the same way.
HPLC was performed using a Waters 2695 Separations Module with a sample compartment maintained at 10° C., and a Waters 2996 Photodiode Array Detector. The column was an ACE C18, 3 μm particle size, 125×3 mm (Hichrom) maintained at 30° C. Compounds were eluted with varying proportions of A: 5 mM KH2PO4, 5 mM H3PO4, and B: 75% acetonitrile, 25% water at a flow rate of […], in order to achieve a similar starting peak area for each catechol. Occasionally, in order to achieve a better resolution of the products, the latter was replaced with 100% methanol. Spectral data was collected from 220 nm to 500 nm, sampling rate 2/sec, 1.2 nm resolution. Data was analysed using Waters Millennium software.
Results: The loss of peak area at 300 nm of the prodrug was plotted against time, and a straight line fitted to the data. Loss of peak area was used to approximate the relative rates of loss of each catechol. The slope of the line-of-best-fit was then divided by the HRP concentration to give a corrected disappearance (see Table 3).

[3] = system: MHEC-5T tumors; test: Reduction in tumor blood flow / functional tumor vessels (fluorescent beads); assay type: in vivo, mice; conditions: 10 mg/kg; MHEC-5T tumor-bearing SCID mice; 24 hours after dosing
Experimental: (§1) Catechols were dissolved in 50% DMSO (2 mg/kg) prior to intravenous (iv) administration (i.v.) to tumor-bearing mice. MHEC-5T tumors were established by subcutaneous injection of 0.5×10^6 cultured MHEC5-T cells (German Collection of Microorganisms and Cell Culture, Braunschweig, Germany) into the right flank of Fox Chase CB-17 severe combined immunodeficient (SCID) mice. Tumor grafts grew palpable within one week and reached the limited size (15×15 mm) within 10 days. Tumor bearing mice were injected intraperitoneally with saline control or various dosages of CA1P or CA4P after the transplanted tumor reached a size of 300 mm^3 (a size without development of necrosis). Twenty-four hours later they were injected with 0.25 ml of fluorescent FluoSphere beads (0.1 μm beads conjugated with blue fluorescent tag (F-8789, Molecular Probes, Eugene, Oreg.) and diluted 1:6 in physiological saline) in the tail vein, and sacrificed after 3 minutes. Tumors were then excised for cryosections. Cryosections of 8 μm thickness were directly examined under a fluorescent microscope. Functional blood vessels were indicated by blue fluorescence from injected microbeads. For quantification, three sections from three tumors treated in each group were examined and in each section, more than 70% of the area was automatically recorded with a microscopic digital camera at ×10 magnification. A computer program named Stage Pro (Media Cybernetics, Md.) was used to control the picture recording. Image analysis was performed with Image Plus software (Media Cybernetics, Md.). The results were expressed as vessel area per mm^2 in percentage of the control in Table 2.
as §1, with “The effect of CA1P on tumor blood flow was evaluated by quantifying the number of functional tumor vessels” for “Catechols were dissolved”, “treated murine tumors.” for “50% DMSO (2 mg/kg) prior to intravenous (iv) administration (i.v.) to tumor-bearing mice.”, “as in Example 4c.” for “by subcutaneous injection of 0.5×10^6 cultured MHEC5-T cells (German Collection of Microorganisms and Cell Culture, Braunschweig, Germany) into the right flank of Fox Chase CB-17 severe combined immunodeficient (SCID) mice. Tumor grafts grew palpable within one week and reached the limited size (15×15 mm) within 10 days.”, “MD)” for “Md.)”, “MD).” for “Md.).”, “control.” for “control in Table 2.”

Compound	IC50 ([1]; 24 h) [µM]	Relative Activation (% Control) [2] [% Control]	Slope/Hrp [2]	Blood Flow at 10 mg/kg (% vessel area of control) [3]	IC50 [1] [µM]
C=CCc1ccc(/C=C\c2cc(OC)c(OC)c(OC)c2)c(O)c1O [ZSB-77, 3-Allyl-6-[(Z)-2-(3,4,5-trimethoxyphenyl)vinyl]-1,2-dihydroxybenzene]	0.748	1.875	−19783		
COc1cc(/C=C\c2ccc(O)c(O)c2O)cc(OC)c1OC	0.069			26.7 % vessel area of control	
CCOc1ccc(/C=C\c2cc(OC)c(OC)c(OC)c2)c(O)c1O [ZSB-81]					0.094
COc1cc(/C=C\c2ccc(C)c(O)c2O)cc(OC)c1OC [ZSB-75, 3-Methyl-6-[(Z)-2-(3,4,5-trimethoxyphenyl)vinyl]-1,2-dihydroxybenzene]	0.9	1.703	−21783		
COc1cc(/C=C\c2cc(-c3ccccc3)cc(O)c2O)cc(OC)c1OC [ZSB-80, 4-Phenyl-6-[(Z)-2-(3,4,5-trimethoxyphenyl)vinyl]-1,2-dihydroxybenzene]		0.017	−2158250		1.56
COc1cc(/C=C\c2ccc(F)c(O)c2O)cc(OC)c1OC	0.546	0.006	−6675900		
CCc1ccc(/C=C\c2cc(OC)c(OC)c(OC)c2)c(O)c1O [ZSB-76, 3-Ethyl-6-[(Z)-2-(3,4,5-trimethoxyphenyl)vinyl]-1,2-dihydroxybenzene]	0.542	6.743	−5502		
COc1cc(/C=C\c2ccc([N+](=O)[O-])c(O)c2O)cc(OC)c1OC	0.28		−1902300		
COc1cc(/C=C\c2cccc(OP(=O)([O-])[O-])c2OP(=O)([O-])[O-])cc(OC)c1OC.[Na+].[Na+].[Na+].[Na+] [ZSB-36, 2′,3′diphosphate-3,4,5-trimethoxy-(Z)-stilbene, tetrasodium salt]				94 % vessel area of control	0.4
C=CCOc1ccc(/C=C\c2cc(OC)c(OC)c(OC)c2)c(O)c1O	0.007		−16925	60 % vessel area of control	
